Measurements: patent US10189809B2, “SGC stimulators” (Ironwood Pharmaceuticals, Inc., priority 2010, dated 2019)

Columns and labels:
[1] = tested on: Thoracic aortic rings; assay: Thoracic aortic rings assay (Example 19a; IBMX as 100% inhibition); conditions: compound at 10 μM; rat thoracic aortic rings contracted with 100 ng/mL phenylephrine; read-out: Percent Relaxation at 10 μM
Procedure: Thoracic aortic rings were dissected from anesthetized (isoflurane) male Sprague-Dawley rats weighing 275-299 g. Tissues were immediately transferred to ice-cold Krebs-Henseleit solution, which had been aerated with 95% O2 and 5% CO2 for 30 minutes. Following removal of connective tissue, aortic sections were cut into 4 rings (˜2 mm each) and suspended on 2 L-shaped hooks, with one hook fixed at the bottom of the tissue bath (Schuler Organ Bath, Harvard Apparatus) and the other connected to a force transducer (F30 Force Transducer, Harvard Apparatus). Baths contained Krebs Henseleit solution (10 mL) heated to 37° C. and aerated with 95% O2 and 5% CO2. Rings were brought to an initial tension of 0.3-0.5 g and gradually raised to a resting tension of 1.0 g over 60 minutes. Rings were rinsed with Krebs Henseleit solution (heated to 37° C. and aerated with 95% O2 and 5% CO2) at 15 minute intervals until a stable baseline was obtained. Rings were considered to be stable after a resting tension of 1.0 g was maintained (for approximately 10 minutes) without need for adjustment. Rings were then contracted with 100 ng/mL phenylephrine by adding 100 uL of a 10 μg/mL phenylephrine stock solution. Tissues achieving a stable contraction were then treated in a cumulative, dose dependent manner with test compounds prepared in dimethylsulfoxide (DMSO). In some cases, tissues were rinsed three times over a 5 minute period with Krebs-Heinseleit's solution (heated to 37° C. and aerated with 95% O2 and 5% CO2), allowed to stabilize at baseline, and then used for characterization of other test articles or DMSO effects. All data were collected using the HSE-ACAD software provided by Harvard Apparatus. […] EC50 values were calculated from concentration-response curves generated with GraphPad Prism Software.

[2] = target: T1, soluble guanylate cyclase (sGC) (Homo sapiens (Human), UniProt Q02108+Q02153); assay: sGC-HEK-cGMP assay run in the absence of SNP (HEK WC assay); type: cell-based; conditions: no SNP, increase in the sGC receptor activity; for HEK WC Assay (fold increase at 10 μM): compound at 10 μM; for HEK WC Assay (fold increase at 30 μM): compound at 30 μM
Method in brief: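 Intracellular cGMP was measured by LC/MS, using a standard curve, in HEK293 cells treated with compound for 10 min at 37° C after a 15 min 0.5 mM IBMX pretreatment, with no SNP present. Lysis and quench used 0.1 M HCl. EC50 values came from concentration-response fits.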

[3] = target: T1, soluble guanylate cyclase (sGC); assay: sGC-HEK-cGMP assay run with SNP incubation (HEK WC assay); type: cell-based; conditions: for Emax at 10 µM: read-out: HEK WC Assay (% Emax at 10 uM/with 10 uM SNP); for Emax at 30 µM: read-out: HEK WC Assay (% Emax at 30 uM/with 10 uM SNP)
Method in brief: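 EC50 values derive from concentration-response curves of intracellular cGMP in HEK293 cells, which express sGC endogenously. Compound and sodium nitroprusside were co-incubated 10 min at 37 °C after a 15-min 0.5 mM IBMX step, with 0.1 M HCl lysis and 1% DMSO vehicle.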

[4] = target: T2, Human soluble guanylate cyclase enzyme (hsGC) (Homo sapiens (Human), UniProt Q02108+Q02153); assay: Purified human sGC enzyme synergy assay in the presence of 1 μM sodium nitroprusside (SNP); type: biochemical; conditions: with 1 μM SNP; for sGC Enzyme (fold increase at 10 μM with SNP): 10 μM compound; for sGC Enzyme (fold increase at 30 μM with SNP): 30 μM compound
Method in brief: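 Fold-change in cGMP-forming specific activity (nmol/mg/min) versus DMSO, with 1 μM SNP present throughout. Reactions held 30 min at 37 °C with 10 or 30 μM compound, 5 ng human sGC, 300 μM GTP, 1 mM IBMX and 2 mM MgCl2 at pH 8.0, then stopped with cold methanol.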

[5] = target: T2, Human soluble guanylate cyclase enzyme (hsGC); assay: Purified human sGC enzyme activity assay; type: biochemical; conditions: for sGC Enzyme (specific activity at 10 μM) / sGC Enzyme (fold increase at 10 μM without SNP): 10 μM compound; for sGC Enzyme (specific activity at 30 μM) / sGC Enzyme (fold increase at 30 μM without SNP): 30 μM compound
Method in brief: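 Values are fold-change of sGC specific activity, nmoles cGMP per mg enzyme per min, relative to DMSO controls. Reactions: 5 ng human enzyme, 300 μM GTP, 1 mM IBMX, 2 mM MgCl2/DTT, 0.1 M Tris pH 8.0, compound 10 or 30 μM final, 37° C for 30 minutes, methanol quench. cGMP read against a 0.078-10 μM final standard curve.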

T1 sequence (Q02153 whole entry): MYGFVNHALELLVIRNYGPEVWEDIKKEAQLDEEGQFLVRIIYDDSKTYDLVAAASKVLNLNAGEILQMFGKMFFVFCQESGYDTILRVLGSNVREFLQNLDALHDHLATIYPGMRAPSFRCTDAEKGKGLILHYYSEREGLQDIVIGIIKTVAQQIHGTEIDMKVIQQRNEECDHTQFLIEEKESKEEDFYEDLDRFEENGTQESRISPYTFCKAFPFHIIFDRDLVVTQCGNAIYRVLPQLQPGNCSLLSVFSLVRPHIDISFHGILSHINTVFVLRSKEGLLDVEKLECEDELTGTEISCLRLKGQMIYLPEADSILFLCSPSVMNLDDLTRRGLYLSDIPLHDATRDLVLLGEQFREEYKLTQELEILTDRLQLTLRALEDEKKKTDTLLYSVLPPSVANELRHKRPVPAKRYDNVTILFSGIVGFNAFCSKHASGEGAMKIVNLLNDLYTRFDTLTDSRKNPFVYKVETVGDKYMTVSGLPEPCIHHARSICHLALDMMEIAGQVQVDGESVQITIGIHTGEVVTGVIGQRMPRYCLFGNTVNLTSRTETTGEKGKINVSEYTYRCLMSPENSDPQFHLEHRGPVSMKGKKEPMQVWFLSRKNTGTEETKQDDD
T1 sequence (Q02108 whole entry): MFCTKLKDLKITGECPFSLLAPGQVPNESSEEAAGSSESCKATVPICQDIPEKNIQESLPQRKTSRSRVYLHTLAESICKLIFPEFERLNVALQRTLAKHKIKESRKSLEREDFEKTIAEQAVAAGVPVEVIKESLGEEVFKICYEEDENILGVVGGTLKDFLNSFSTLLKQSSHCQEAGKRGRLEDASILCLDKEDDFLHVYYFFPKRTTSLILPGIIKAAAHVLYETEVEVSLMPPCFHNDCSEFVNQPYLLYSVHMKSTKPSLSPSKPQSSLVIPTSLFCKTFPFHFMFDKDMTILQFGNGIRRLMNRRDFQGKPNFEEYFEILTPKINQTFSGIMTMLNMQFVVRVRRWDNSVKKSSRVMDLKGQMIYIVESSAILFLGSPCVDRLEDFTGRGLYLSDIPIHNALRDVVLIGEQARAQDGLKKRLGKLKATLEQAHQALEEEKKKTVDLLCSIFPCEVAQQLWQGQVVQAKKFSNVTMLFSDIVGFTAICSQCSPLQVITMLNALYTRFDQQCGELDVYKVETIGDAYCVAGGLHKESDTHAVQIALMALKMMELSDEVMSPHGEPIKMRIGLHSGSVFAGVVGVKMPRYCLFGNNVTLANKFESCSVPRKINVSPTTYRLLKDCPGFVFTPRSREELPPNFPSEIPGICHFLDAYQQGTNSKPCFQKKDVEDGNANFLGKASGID
T2 sequence (Q02153 whole entry): as the sequence (Q02153 whole entry) above
T2 sequence (Q02108 whole entry): as the sequence (Q02108 whole entry) above

Compound	HEK WC Assay (fold increase at 10 μM) [2]	HEK WC Assay (fold increase at 30 μM) [2]	Emax at 10 µM [3]	Emax at 30 µM [3]	sGC Enzyme (fold increase at 10 μM with SNP) [4]	sGC Enzyme (fold increase at 30 μM with SNP) [4]	sGC Enzyme (specific activity at 10 μM) [5]	sGC Enzyme (fold increase at 10 μM without SNP) [5]	sGC Enzyme (specific activity at 30 μM) [5]	sGC Enzyme (fold increase at 30 μM without SNP) [5]	inhibition at 10 µM [1]
COc1cccc(-c2cc(-c3ncccn3)nn2Cc2ccccc2F)n1 [Compound I-6]	B (B = 1 to <2 fold increase)	C (C = 2 to <5 fold increase)	20 to 40%	20 to 40%	B (B = 2 to <5 fold increase)	D (D = equal or >10 fold increase)	D (D = 200 to <500)	B (B = 2 to <5 fold increase)	D (D = 200 to <500)	B (B = 2 to <5 fold increase)	102%
Fc1ccccc1Cn1nc(-c2ccccn2)cc1-c1ccccc1 [Compound I-5]	A (A = no increase to <1 fold increase)	A (A = no increase to <1 fold increase)	0 to 10%	10 to 20%	B (B = 2 to <5 fold increase)	B (B = 2 to <5 fold increase)	D (D = 200 to <500)	B (B = 2 to <5 fold increase)	D (D = 200 to <500)	B (B = 2 to <5 fold increase)	55.6%
Nc1ccnc(-c2cc(-c3ccccn3)n(Cc3ccccc3F)n2)n1 [Compound I-31]			0 to 10%	10 to 20%	B (B = 2 to <5 fold increase)	C (C = 5 to <10 fold increase)	C (C = 100 to <200)	A (A = no increase to <2 fold increase)	C (C = 100 to <200)	B (B = 2 to <5 fold increase)	93.2%
N#Cc1cc(-c2ccccn2)nn1Cc1ccccc1F [Compound I-3]	A (A = no increase to <1 fold increase)	D (D = 5 to <10 fold increase)	20 to 40%	40 to 60%	C (C = 5 to <10 fold increase)	C (C = 5 to <10 fold increase)	D (D = 200 to <500)	B (B = 2 to <5 fold increase)		C (C = 5 to <10 fold increase)	92%
Fc1ccccc1Cn1nc(-c2ncccn2)cc1-c1ccsc1 [Compound I-4]	A (A = no increase to <1 fold increase)	D (D = 5 to <10 fold increase)	10 to 20%	20 to 40%	B (B = 2 to <5 fold increase)	C (C = 5 to <10 fold increase)	E (E = 500 to <1000)	B (B = 2 to <5 fold increase)	E (E = 500 to <1000)	C (C = 5 to <10 fold increase)	102%
Fc1ccccc1Cn1nc(-c2ncccn2)cc1-c1nccs1 [Compound I-33]	B (B = 1 to <2 fold increase)	C (C = 2 to <5 fold increase)	20 to 40%	40 to 60%		D (D = equal or >10 fold increase)	C (C = 100 to <200)	A (A = no increase to <2 fold increase)	D (D = 200 to <500)	C (C = 5 to <10 fold increase)	110%
Fc1ccccc1Cn1nc(-c2ccccn2)cc1-c1ccccc1F [Compound I-7]			0 to 10%	0 to 10%	B (B = 2 to <5 fold increase)	C (C = 5 to <10 fold increase)	D (D = 200 to <500)	B (B = 2 to <5 fold increase)	D (D = 200 to <500)	B (B = 2 to <5 fold increase)	60.4%

Further lines, with some results ahead:

HEK WC Assay (fold increase at 10 μM) [2]	HEK WC Assay (fold increase at 30 μM) [2]	Emax at 10 µM [3]	Emax at 30 µM [3]	sGC Enzyme (fold increase at 10 μM with SNP) [4]	sGC Enzyme (fold increase at 30 μM with SNP) [4]	sGC Enzyme (specific activity at 10 μM) [5]	sGC Enzyme (fold increase at 10 μM without SNP) [5]	sGC Enzyme (specific activity at 30 μM) [5]	sGC Enzyme (fold increase at 30 μM without SNP) [5]	Compound	inhibition at 10 µM [1]
		20 to 40%	20 to 40%	C (C = 5 to <10 fold increase)	D (D = equal or >10 fold increase)	C (C = 100 to <200)	A (A = no increase to <2 fold increase)	C (C = 100 to <200)	B (B = 2 to <5 fold increase)	Fc1ccccc1Cn1nc(-c2ccccn2)cc1-c1nnco1 [Compound I-45]	94.9%
		0 to 10%	10 to 20%	B (B = 2 to <5 fold increase)	C (C = 5 to <10 fold increase)	D (D = 200 to <500)	B (B = 2 to <5 fold increase)	E (E = 500 to <1000)	C (C = 5 to <10 fold increase)	Fc1ccccc1Cn1nc(-c2ccccn2)cc1C1CCC1 [Compound I-42]	72.1%
		20 to 40%	20 to 40%	C (C = 5 to <10 fold increase)	D (D = equal or >10 fold increase)	B (B = 50 to <100)	B (B = 2 to <5 fold increase)	C (C = 100 to <200)	C (C = 5 to <10 fold increase)	Fc1ccccc1Cn1nc(-c2ncccn2)cc1-c1cccs1 [Compound I-66]	103%
		20 to 40%	20 to 40%	D (D = equal or >10 fold increase)	D (D = equal or >10 fold increase)	C (C = 100 to <200)	B (B = 2 to <5 fold increase)	D (D = 200 to <500)	C (C = 5 to <10 fold increase)	Fc1ccccc1Cn1nc(-c2ccccn2)cc1-c1ccco1 [Compound I-61]	103%
